Source: the supplement of paper PMC10883282
± gives the standard deviation of the averaged measurements.

How the values were obtained:
Assay in all cases: relative viability vs DMSO control (72 h) (fraction); higher = more viable cells
G401 = tested on: G401
How it was run: (§1)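 Densities for seeding sarcoma cell lines into 384-well plates were set to give 80–90% confluence. After 24 h, 2.5 µl of serially diluted compound from source plates of 10 mM to 0.0002 mM went in, and plates stayed 72 h at 37 °C in 5% CO2 with 0.1% DMSO vehicle and a 5 µM positive control. Percent growth from ATPLite readings, averaged over up to triplicate wells, served as relative viability, rescaled so 1 means full and 0 means none.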

HT1080 = tested on: HT1080
How it was run: as §1

KHOS-NP = tested on: KHOS-NP
How it was run: as §1

MES-SA = tested on: MES-SA
How it was run: as §1

RD-ES = tested on: RD-ES
How it was run: as §1

RD = tested on: RD
How it was run: as §1

SK-ES-1 = tested on: SK-ES-1
How it was run: as §1

SK-LMS-1 = tested on: SK-LMS-1
How it was run: as §1

SW1353 = tested on: SW1353
How it was run: as §1

SW684 = tested on: SW684
How it was run: as §1

SW872 = tested on: SW872
How it was run: as §1

VA-ES-BJ = tested on: VA-ES-BJ
How it was run: as §1

Cc1c(F)cc(C(=O)NC2CC2)cc1-c1ccc(C(=O)NCC(C)(C)C)cn1 [Losmapimod]
Conditions	relative viability
G401, 0.00017 µM	1.06 ± 0.017
G401, 0.00051 µM	1.03 ± 0.049
G401, 0.00152 µM	1.05 ± 0.037
G401, 0.00457 µM	1.074 ± 0.0083
G401, 0.01372 µM	1.03 ± 0.054
G401, 0.04115 µM	1.01 ± 0.032
G401, 0.1235 µM	0.981 ± 0.027
G401, 0.3704 µM	0.964 ± 0.012
G401, 1.111 µM	0.955 ± 0.013
G401, 3.333 µM	0.904 ± 0.019
G401, 10 µM	0.887 ± 0.021
HT1080, 0.00017 µM	1.09 ± 0.049
HT1080, 0.00051 µM	1.09 ± 0.012
HT1080, 0.00152 µM	1.12 ± 0.022
HT1080, 0.00457 µM	1.11 ± 0.021
HT1080, 0.01372 µM	1.1 ± 0.017
HT1080, 0.04115 µM	1.149 ± 0.0082
HT1080, 0.1235 µM	1.16 ± 0.014
HT1080, 0.3704 µM	1.13 ± 0.018
HT1080, 1.111 µM	1.11 ± 0.023
HT1080, 3.333 µM	1.09 ± 0.024
HT1080, 10 µM	1.11 ± 0.023
KHOS-NP, 0.00017 µM	1.08 ± 0.018
KHOS-NP, 0.00051 µM	1.1 ± 0.014
KHOS-NP, 0.00152 µM	1.09 ± 0.015
KHOS-NP, 0.00457 µM	1.1 ± 0.011
KHOS-NP, 0.01372 µM	1.11 ± 0.012
KHOS-NP, 0.04115 µM	1.12 ± 0.017
KHOS-NP, 0.1235 µM	1.097 ± 0.0082
KHOS-NP, 0.3704 µM	1.1 ± 0.013
KHOS-NP, 1.111 µM	1.097 ± 0.0074
KHOS-NP, 3.333 µM	1.081 ± 0.0022
KHOS-NP, 10 µM	1.1 ± 0.018
MES-SA, 0.00017 µM	0.997 ± 0.011
MES-SA, 0.00051 µM	0.9963 ± 0.0047
MES-SA, 0.00152 µM	0.967 ± 0.022
MES-SA, 0.00457 µM	0.951 ± 0.023
MES-SA, 0.01372 µM	0.96 ± 0.017
MES-SA, 0.04115 µM	0.935 ± 0.044
MES-SA, 0.1235 µM	0.9396 ± 0.0087
MES-SA, 0.3704 µM	0.928 ± 0.022
MES-SA, 1.111 µM	0.8915 ± 0.0037
MES-SA, 3.333 µM	0.866 ± 0.03
MES-SA, 10 µM	0.879 ± 0.03
RD, 0.00017 µM	1.11 ± 0.06
RD, 0.00051 µM	1.11 ± 0.038
RD, 0.00152 µM	1.1 ± 0.04
RD, 0.00457 µM	1.14 ± 0.014
RD, 0.01372 µM	1.12 ± 0.033
RD, 0.04115 µM	1.13 ± 0.017
RD, 0.1235 µM	1.11 ± 0.012
RD, 0.3704 µM	1.07 ± 0.04
RD, 1.111 µM	1.08 ± 0.057
RD, 3.333 µM	1.02 ± 0.061
RD, 10 µM	1.07 ± 0.039
RD-ES, 0.00017 µM	1.01 ± 0.05
RD-ES, 0.00051 µM	0.995 ± 0.012
RD-ES, 0.00152 µM	1.02 ± 0.031
RD-ES, 0.00457 µM	0.993 ± 0.025
RD-ES, 0.01372 µM	0.998 ± 0.046
RD-ES, 0.04115 µM	0.962 ± 0.043
RD-ES, 0.1235 µM	0.947 ± 0.05
RD-ES, 0.3704 µM	0.917 ± 0.012
RD-ES, 1.111 µM	0.879 ± 0.013
RD-ES, 3.333 µM	0.892 ± 0.011
RD-ES, 10 µM	0.879 ± 0.019
SK-ES-1, 0.00017 µM	1.08 ± 0.047
SK-ES-1, 0.00051 µM	1.12 ± 0.019
SK-ES-1, 0.00152 µM	1.09 ± 0.073
SK-ES-1, 0.00457 µM	1.11 ± 0.054
SK-ES-1, 0.01372 µM	1.07 ± 0.037
SK-ES-1, 0.04115 µM	1.02 ± 0.036
SK-ES-1, 0.1235 µM	1.01 ± 0.021
SK-ES-1, 0.3704 µM	0.993 ± 0.036
SK-ES-1, 1.111 µM	0.968 ± 0.047
SK-ES-1, 3.333 µM	0.915 ± 0.046
SK-ES-1, 10 µM	0.879 ± 0.045
SK-LMS-1, 0.00017 µM	1.02 ± 0.024
SK-LMS-1, 0.00051 µM	1.02 ± 0.031
SK-LMS-1, 0.00152 µM	1.01 ± 0.068
SK-LMS-1, 0.00457 µM	1 ± 0.041
SK-LMS-1, 0.01372 µM	0.995 ± 0.044
SK-LMS-1, 0.04115 µM	1.02 ± 0.06
SK-LMS-1, 0.1235 µM	1.005 ± 0.0088
SK-LMS-1, 0.3704 µM	0.978 ± 0.034
SK-LMS-1, 1.111 µM	0.981 ± 0.072
SK-LMS-1, 3.333 µM	0.967 ± 0.035
SK-LMS-1, 10 µM	0.946 ± 0.021
SW684, 0.00017 µM	1.11 ± 0.053
SW684, 0.00051 µM	1.2 ± 0.045
SW684, 0.00152 µM	1.24 ± 0.027
SW684, 0.00457 µM	1.21 ± 0.035
SW684, 0.01372 µM	1.18 ± 0.041
SW684, 0.04115 µM	1.15 ± 0.067
SW684, 0.1235 µM	1.13 ± 0.089
SW684, 0.3704 µM	1.25 ± 0.015
SW684, 1.111 µM	1.21 ± 0.05
SW684, 3.333 µM	1.18 ± 0.06
SW684, 10 µM	1.19 ± 0.045
SW872, 0.00017 µM	1.04 ± 0.02
SW872, 0.00051 µM	1.08 ± 0.021
SW872, 0.00152 µM	1.07 ± 0.021
SW872, 0.00457 µM	1.05 ± 0.017
SW872, 0.01372 µM	1.06 ± 0.022
SW872, 0.04115 µM	1.04 ± 0.028
SW872, 0.1235 µM	1.06 ± 0.012
SW872, 0.3704 µM	1.04 ± 0.022
SW872, 1.111 µM	1.05 ± 0.044
SW872, 3.333 µM	1.04 ± 0.032
SW872, 10 µM	1.04 ± 0.012
SW1353, 0.00017 µM	1.06 ± 0.051
SW1353, 0.00051 µM	1.06 ± 0.025
SW1353, 0.00152 µM	1.08 ± 0.036
SW1353, 0.00457 µM	1.07 ± 0.035
SW1353, 0.01372 µM	1.09 ± 0.031
SW1353, 0.04115 µM	1.08 ± 0.02
SW1353, 0.1235 µM	1.08 ± 0.014
SW1353, 0.3704 µM	1.09 ± 0.018
SW1353, 1.111 µM	1.079 ± 0.0044
SW1353, 3.333 µM	1.07 ± 0.063
SW1353, 10 µM	0.959 ± 0.14
VA-ES-BJ, 0.00017 µM	1.11 ± 0.023
VA-ES-BJ, 0.00051 µM	1.1 ± 0.026
VA-ES-BJ, 0.00152 µM	1.07 ± 0.061
VA-ES-BJ, 0.00457 µM	1.07 ± 0.055
VA-ES-BJ, 0.01372 µM	1.07 ± 0.048
VA-ES-BJ, 0.04115 µM	1.06 ± 0.046
VA-ES-BJ, 0.1235 µM	0.988 ± 0.045
VA-ES-BJ, 0.3704 µM	1.03 ± 0.017
VA-ES-BJ, 1.111 µM	1.03 ± 0.063
VA-ES-BJ, 3.333 µM	1.02 ± 0.068
VA-ES-BJ, 10 µM	1 ± 0.032
